# Experimental data: patent publication US20250040554A1, “NEW USES OF PHENMEDIPHAM AND HERBICIDAL COMBINATIONS COMPRISING PHENMEDIPHAM” (BAYER AKTIENGESELLSCHAFT, priority 2021, published 2025)
# Experiments:
# Assay type in all cases: in vivo
# Settings in all cases: 20 g/ha, 15 DAA
# [1] = test system: AMARE=Amaranthus retroflexus; assay: Weed control field trial AMARE
# Excerpt: (§1) The respective (combinations of) materials were applied to weed plants in the greenhouse or in the field at the respective growth stage indicated hereinafter for the different weed species mentioned below. The respective (combinations of) active ingredients were also applied to corn, cotton and soybean crop plants, and the selectivity (damage) in these crop plants rated (assessed).
# (§2) Visual scoring of the damage to the trial plants took place after the time mentioned in the respective Table—indicated in number of Days After Application (DAA). Damage and development of all above-ground parts of the respective plants was recorded. Visual rating was done on a percentage scale in relation to the untreated control (100%=all plants dead; 50%=green plant biomass reduced by 50%, and 0%=no discernible difference=like control plot).
# (§3) wherein • A, B=respective value in percent of active ingredient A at a dose rate of a g/ha, ingredient B at a dose rate of b g/ha • E^C=Expected value according to Colby (S. R. Colby; Weeds 15 (1967), 20-22) in % at a dose rate of a+b, each in g/ha • Δ=Difference (in %) between measured value E and expected value E^C (%) (measured value minus expected value)
# (§4) After the harmful plants had emerged, they were treated, at the respective growth stage indicated, with the respective materials as indicated at a water application rate of 187 L/ha.
# (§5) After the treatment (15 days after the treatment), the herbicidal activity of respective material was scored visually at the same time by comparing the differently treated plots with the untreated control plots. The score figures of the different plots were averaged.
# (§6) The dose rates of herbicidal ingredients used in each case are indicated for the respective active ingredient and refer to the amount of active ingredient per hectare (g/ha).
# (§7) The weed control activity of different (combinations of) herbicidal active ingredients was investigated in field trials for the following weed species: • AMARE=Amaranthus retroflexus • KCHSC=Kochia scoparia • PANRA=Panicum ramosum
# (§8) The growth stage of AMARE was BBCH 19, the growth stage of KCHSC was BBCH 19 and the growth stage of PANRA was BBCH 22 at the time of application of the respective material.
# (§9) Phenmedipham and the respective aroylcyclohexanedione herbicide were applied at varying application rates (Dose Rate) to the different species of weed plants. The results are shown in Tables 4a to 4d as the % control when assessed 15 days after application (DAA), respectively.
# (§10) In all the trials of Tables 4a to 4d Mero® (rapeseed oil methyl ester) was added to the respective spray mixture in an amount corresponding to 1 L/ha for PMP, 1 L/ha for the respective aroylcyclohexanedione herbicide, and 2 L/ha for mixtures of PMP+the respective aroylcyclohexanedione herbicide.
# KCHSC=Kochia scoparia = assay: Weed control field trial KCHSC
# Excerpt: as §1, §2, §3, §4, §5, §6, §7, §8, §9, §10
# PANRA=Panicum ramosum = assay: Weed control field trial PANRA
# Excerpt: as §1, §2, §3, §4, §5, §6, §7, §8, §9, §10
Compound,% control AMARE [1],% control KCHSC (KCHSC=Kochia scoparia),% control PANRA (PANRA=Panicum ramosum)
"CS(=O)(=O)c1ccc(C(=O)C2C(=O)CCCC2=O)c(Cl)c1 [SCT, 2-[2-chloro-4-(methylsulfonyl)benzoyl]cyclohexane-1,3-dione]",5%,5%,
"CS(=O)(=O)c1ccc(C(=O)C2C(=O)CCCC2=O)c(Cl)c1COCC(F)(F)F [TBT, 2-{2-chloro-4-(methylsulfonyl)-3-[(2,2,2-trifluoroethoxy)methyl]benzoyl}cyclohexane-1,3-dione]",35%,20%,20%
